Results from patent publication US7968103B2, “Compositions comprising fetal hemoglobin and bacterial endotoxin and optionally additional fetal liver components” (priority 2003, dated 2011).

Legend:
[1] = molecular target: CD14 on spleen adherent cells of DBA/2 mice (mouse (cells from DBA/2 mice)) (UniProt P10810); assay: cell-based or functional assay
mouse spleen cells = assay: Cytokine production by mouse spleen cells with LPS and Hb; type: cell-based, C57BL/6 mice; conditions: murine spleen cells, LPS 200 ng/ml
Protocol: (§1) Spleen cells were pooled from 3 C57BL/6 donors (8-week male). Cells were incubated in triplicate in 2 ml medium (with 10% fetal calf serum and 200 ng/ml LPS) at a concentration of 1×10^6/ml. Medium contained in addition adult or fetal (sheep) hemoglobin at the various concentrations shown. Supernatants were harvested 24 hrs later to assay in triplicate for TNFα by ELISA. […] Control cultures (no LPS, LPS only, or fetal/adult Hb only) produced levels <50 ng/ml, <70 ng/ml or <50 ng/ml respectively.
as §1, with “assay for IL-6” for “assay”, “triplicate” for “triplicate for TNFα”, “<100” for “<50”, “<120” for “<70”
In this experiment the cloned γ- and β-chain of sheep Hb were assayed as CHO extracts (20 μg/ml) together with LPS (100 ng/ml) to stimulate murine spleen cells in vitro for the production of TNFα (detection at 24 hr by ELISA) […]

[2] = tested on: LPS aggregates (Re-LPS from E. coli F515, S-form LPS from Salmonella enterica sv. Minnesota 188233); assay: LPS disaggregation, automated native PAGE assay; conditions: LPS 0.275 μg/μl, hemoglobin 0.375 μg/μl, 37° C., 30 min
Description: Concerning the molecular mechanism of the enhancement of LPS bioactivities by adult mammalian hemoglobin (HbA) preparations, a profound dispersion of the physiologically predominating large LPS aggregates (MW≧10^6 Da) by HbA has been described [Roth, R. J., 1994; Kaca, W., 1994; Roth R. J., 1999]. For analysis of potential analogous effects of highly purified fetal ovine hemoglobin (s-HbF) an automated native PAGE assay was established employing the PhastSystem™ apparatus (Amersham Pharmacia Biotech). Briefly, Re-LPS purified from E. coli F515 or S-form LPS from Salmonella enterica sv. Minnesota 188233 at a final concentration of 0.275 μg/μl was incubated in the presence or absence of the analyzed hemoglobin preparations (0.375 μg/μl) at 37° C. for 30 min. […] The denatured samples were finally analyzed by SDS-PAGE in PhastGel™ Homogeneous-20 gels equipped with PhastGel™ SDS buffer strips (Amersham Pharmacia Biotech) according to the standard protocol of the manufacturer and subsequent silver staining. In comparison to ovine HbF preparations of human HbA (SIGMA-Aldrich), adult ovine hemoglobin (s-HbA) and heme-free fetal ovine hemoglobin (s-HbF/hf) were analysed for LPS disaggregation activities in the native Phast™ PAGE assay.

[3] = tested on: S-form LPS, Re-LPS, Lipid A; assay: LPS/Lipid A-specific adsorption assay; type: binding
Protocol: In order to identify the LPS or Lipid A-interacting protein(s) in CLP1b a LPS/Lipid A-specific adsorption assay was developed. In this screening system polyvinylchloride 96-well microtiter plates (Becton Dickinson) were coated for 14 h at 4° C. with S-form LPS from Salmonella enterica sv. Minnesota 188233, Re-LPS from E. coli F515 or a Lipid A preparation derived from the E. coli strain solubilized as triethylamine (TEA) salts in LAL reagent water (BioWhittaker) at concentrations of 5 μg/ml or 2 μg/ml, respectively. As a control a series of wells was similarly treated with LAL reagent water without the addition of LPS or Lipid A. Subsequently, the solutions were decanted and the wells were rinsed four times with Dulbeccos phosphate-buffered saline (D-PBS; Lifetechnologies) without magnesium or calcium salts. […] In addition, the lyophilized samples from the prior CLP1b incubation and the following sequence of washing steps were resuspended in 50 μl SDS-Sample buffer and the compositions of the collected samples from the adsorption assay were analyzed by SDS-PAGE in 15% (w/v) polyacrylamide gels and silver staining according to the method described by Heukeshoven [Heukeshoven, J., 1986].

human PBL = assay: TNFα production by human PBL with LPS and Hb; type: cell-based; conditions: LPS 200 ng/ml
Protocol: PBL were obtained by Ficoll-hypaque purification from volunteers. Cells were incubated in triplicate in 2 ml medium (with 10% commercial human AB serum and 200 ng/ml LPS) at a concentration of 1×10^6/ml. Medium contained in addition adult or fetal (sheep) hemoglobin at the various concentrations shown. Supernatants were harvested 24 hrs later to assay in triplicate for TNFα by ELISA. […] Control cultures (no LPS, LPS only, or fetal/adult Hb only) produced levels <50 ng/ml, <100 ng/ml or <65 ng/ml respectively.
PBL were obtained by Ficoll-hypaque purification from volunteers. Cells were incubated in 2 ml medium (with 10% commercial human AB serum). Cells were incubated in the presence/absence of 500 ng/ml adult or fetal sheep hemoglobin α- or γ-chain. Control cells were incubated in the absence of hemoglobin protein (far left of Figure). In addition, each group was further subdivided into triplicates which received no additional materials (open bars), or 200 ng/ml LPS (closed bars). Supernatants were harvested 24 hrs later to assay (in triplicate) for TNFα by ELISA. Data in panels A and B are independent studies using different volunteer donors (mean ±SD). […]

[4] = Bioenhancing effect on LPS (data not shown)
adherent spleen cells = assay: Co-stimulation of adherent spleen cells (macrophages) with LPS/CLP2p and recombinant cytokines, cytokine ELISA; type: cell-based, DBA/2 mice; conditions: 18 h; LPS 1 μg/ml, CLP2p 0.3 μg/ml, rIL-12/rIL-13 0.1 μg/ml, anti-IL-12 10 μg/ml
Protocol: LPS, as well as many defined cytokines, including IL-1, IL-6, IL-10, IL-12, IL-13 and IFNγ, stimulate macrophages to produce other cytokines in vitro and in vivo. […] In addition, cells were treated with CLP2p, or with cytokines, in the presence of monoclonal antibodies to cytokines. Cytokine production was measured by ELISA (all reagents purchased by Pharmingen, San Diego, USA).
IL-12 is a primary physiological stimulus for cytokine production by macrophages during inflammation [Wang, J., 1999], and LPS may mediate its stimulatory effects by inducing IL-12 production. Similarly, IL-13 may be a physiologic counter-regulator of stimulation by IL-12 [Machado, F., 1998]. […] In some cultures a monoclonal antibody to IL-12 was included. (Recombinant cytokines were obtained according to conventional protocols.) Data pooled from 3 such studies are shown in Table 1.

Sequence of UniProt P10810 (P10810 16-336): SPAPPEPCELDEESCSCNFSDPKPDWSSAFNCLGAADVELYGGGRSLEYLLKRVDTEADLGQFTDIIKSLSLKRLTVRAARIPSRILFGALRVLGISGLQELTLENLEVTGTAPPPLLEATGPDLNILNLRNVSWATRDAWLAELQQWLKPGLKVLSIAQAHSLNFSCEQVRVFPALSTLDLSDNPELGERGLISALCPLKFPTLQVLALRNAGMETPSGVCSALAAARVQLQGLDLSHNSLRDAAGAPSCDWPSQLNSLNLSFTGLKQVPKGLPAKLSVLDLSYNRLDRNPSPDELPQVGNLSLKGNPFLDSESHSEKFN

Molecule: commercial anti-CD14 monoclonal antibody (UCHM-1, Sigma)
- Inhibition % of TNF-α production by spleen adherent cells; stimulus CLP2p (0.3 µg/ml), anti-CD14 2.5 µg/ml [1]: 46%
- Inhibition % of TNF-α production by spleen adherent cells; stimulus CLP2p (0.3 µg/ml), anti-CD14 10 µg/ml [1]: 80%
- Inhibition % of TNF-α production by spleen adherent cells; stimulus LPS (1 µg/ml), anti-CD14 2.5 µg/ml [1]: 58%
- Inhibition % of TNF-α production by spleen adherent cells; stimulus LPS (1 µg/ml), anti-CD14 10 µg/ml [1]: 81%

Molecule: fetal Hb: purified fetal sheep hemoglobin, α and γ chains (α2γ2)
- synergy with LPS in the production of TNFα or IL-6 (mouse spleen cells): clear evidence for a synergy
- LPS disaggregation activity [2]: stronger LPS disaggregation activities
- LPS/Lipid A interaction in CLP1b [3]: major LPS/Lipid A-interacting component
- synergy with LPS for the production of TNFα (human PBL): striking synergy

Molecule: myoglobin
- bioenhancing effect [4]: not observed

Molecule: rIL-13: recombinant cytokine IL-13 [reference compound]
- IL-1 level in culture supernatant (adherent spleen cells): 15 ng/mL
- IL-6 level in culture supernatant (adherent spleen cells): 1040 pg/mL
- TNFα level in culture supernatant (adherent spleen cells): 40 ng/mL

B1: rIL-12: recombinant cytokine IL-12 (protein, UniProt P29459 23-219; P29460 23-328, looked up)
Interleukin-12 subunit alpha: RNLPVATPDPGMFPCLHHSQNLLRAVSNMLQKARQTLEFYPCTSEEIDHEDITKDKTSTVEACLPLELTKNESCLNSRETSFITNGSCLASRKTSFMMALCLSSIYEDLKMYQVEFKTMNAKLLMDPKRQIFLDQNMLAVIDELMQALNFNSETVPQKSSLEEPDFYKTKIKLCILLHAFRIRAVTIDRVMSYLNAS
Interleukin-12 subunit beta: IWELKKDVYVVELDWYPDAPGEMVVLTCDTPEEDGITWTLDQSSEVLGSGKTLTIQVKEFGDAGQYTCHKGGEVLSHSLLLLHKKEDGIWSTDILKDQKEPKNKTFLRCEAKNYSGRFTCWWLTTISTDLTFSVKSSRGSSDPQGVTCGAATLSAERVRGDNKEYEYSVECQEDSACPAAEESLPIEVMVDAVHKLKYENYTSSFFIRDIIKPDPPKNLQLKPLKNSRQVEVSWEYPDTWSTPHSYFSLTFCVQVQGKSKREKKDRVFTDKTSATVICRKNASISVRAQDRYYSSSWSEWASVPCS
- IL-1 level in culture supernatant (adherent spleen cells): 235 ng/mL
- IL-6 level in culture supernatant (adherent spleen cells): 359 pg/mL
- TNFα level in culture supernatant (adherent spleen cells): 149 ng/mL
